According to US20250268868A1, “AGENT FOR REDUCING VISCERAL FAT WEIGHT” (Kowa Co., Ltd., priority 2009, published 2025):

Assays:
Zucker fatty rats [1] = assay: Adverse events and feed intake during administration to Zucker fatty rats; format: in vivo, rat
Description: Rats were divided into the following four groups (six rats per group) so that body weights, plasma total cholesterol levels, and plasma triglyceride levels were averaged in the groups: a first group (control), a second group (administration of compound A (1 mg/kg)), a third group (administration of compound A (3 mg/kg)), and a fourth group (administration of fenofibrate (300 mg/kg)). A group of five Zucker lean rats was employed as a negative control group.
Each drug was orally administered once a day (in the morning) for continuous 14 days. A 0.5 mass % aqueous methylcellulose solution (2 mL/kg) was orally administered to the rats of the first group (control).
However, from 11 days to 14 days after administration, feed intake was reduced by 14% in the rats of the group of fenofibrate administration, which raised a concern about the toxicity of fenofibrate. Even under such a situation, fat weight tended to decrease only slightly.

KK-Ay mice [2] = assay: Fat weight reducing effect on obesity model mice (KK-Ay mice); format: in vivo, mouse; conditions: oral once a day for 35 days
Description: This test employed compound A, as well as (R)2-[3-[ [N-(5-fluorobenzoxazol2-yl)-N2-phenoxyethyl]aminomethyl]phenoxy]butyric acid (hereinafter will be referred to as “compound B”), which is an optically active substance of the compound disclosed in Example 229 in Patent Document 2. Compound A, compound B, or fenofibrate was administered to KK-Ay mice, and the effects of the compound on epididymal fat weight and mesenteric fat weight were determined through the below-described methods.
Method: Male KK-Ay mice (KK-Ay/TaJcl) were purchased from Clea Japan, Inc. (10 weeks old upon test). Each compound was orally administered to mice once a day for […]. Throughout the test period, the mice were reared in a rearing cage (light-dark cycle (light period by interior lighting: 7:00 a.m. to 7:00 p.m.), temperature: 23±3° C., humidity: 55+15%) under conditions where solid feed (CE-2, product of Oriental Yeast Co., Ltd.) and tap water were fed ad libitum.
Each of compound A, compound B, and fenofibrate was suspended in a 0.5 mass % aqueous solution of methylcellulose (Metolose (registered trademark), SM-400, product of Shin-Etsu Chemical Co., Ltd.) so that the dose of the aqueous solution was adjusted to 5 mL/kg. The resultant suspension was refrigerated in a light-shielding bottle at 4° C., and drug preparation was carried out every seven days.
(§1) Animals were divided into the following four groups (six animals per group): a first group (control), a second group (administration of compound A (1 mg/kg)), a third group (administration of compound B (3 mg/kg)), and a fourth group (administration of fenofibrate (300 mg/kg)).
(§2) Each drug was orally administered once a day (in the morning) for 35 days. A 0.5 mass % aqueous methylcellulose solution was orally administered (5 mL/kg) to the animals of the first group (control).
After completion of administration, epididymal fat and mesenteric fat were removed and weighed.
The results were represented as percent reduction (mean value) in fat weight in each compound administration group with respect to the control group.

FGF21 = assay: Plasma FGF21 level in Zucker fatty rats, ELISA; format: in vivo, rat; conditions: compound A 3 mg/kg, oral once a day for 14 days, day 14
Description: (§3) This test employed (R)-2-[3-[[N-(benzoxazol2-yl) -N-3-(4-methoxyphenoxy)propyl]aminomethyl]phenoxy]butyric acid (hereinafter will be referred to as “compound A”), which is an optically active substance of the compound disclosed in Example 14 in Patent Document 2. Compound A or fenofibrate was administered to Zucker fatty rats, and the effects of the compound on plasma triglyceride (TG) level, plasma FGF21 level, and epididymal fat weight were determined through the below-described methods.
(§4) Hyperlipidemic Zucker fatty rats with obesity due to overeating (Crlj: ZUC-Lepr Genotype: fa/fa) and Zucker lean rats without obesity (Crlj: ZUC-Lepr Genotype: fa/+ or +/+) were purchased from Charles River Laboratories Japan Inc. (eight weeks old upon test).
(§5) Throughout the test period, the rats were reared in a rearing cage (light-dark cycle (light period by interior lighting: 7:00 a.m. to 7:00 p.m.), temperature: 23+3° C., humidity: 55±15%) under conditions where solid feed (CE-2, product of Oriental Yeast Co., Ltd.) and tap water were fed ad libitum. […]
(§6) On day 14 after initiation of administration, blood was collected after four-hour fasting following administration, and plasma triglyceride level and plasma FGF21 level were measured through an enzymatic method and ELISA (Human FGF-21 ELISA Kit, product of Biovender), respectively. […]

Zucker fatty rats [3] = assay: Plasma triglyceride (TG) level in Zucker fatty rats, enzymatic method; format: in vivo, rat; conditions: compound A 3 mg/kg, oral once a day for 14 days, blood on day 14 after four-hour fasting
Description: as §3, §4, §5, §6

KK-Ay mice [4] = conditions: mouse, in vivo, 1 mg/kg
Description: as §1, §2

Zucker fatty rats [5] = assay: Epididymal fat weight (indicator of visceral fat weight) in Zucker fatty rats; format: in vivo, rat; conditions: compound A 3 mg/kg, oral once a day for 14 days
Description: as §3, §4, §5, §6

rat model = conditions: cited from earlier work

Compound: CC[C@@H](Oc1cccc(CN(CCCOc2ccc(OC)cc2)c2nc3ccccc3o2)c1)C(=O)O [Compound A, (R)-2-[3-[[N-(benzoxazol2-yl) -N-3-(4-methoxyphenoxy)propyl]aminomethyl]phenoxy]butyric acid]
- adverse events during the period of administration (Zucker fatty rats [1]; rat, in vivo, po): adverse events were not particularly observed
- Epididymal fat weight, percent reduction (mean value) with respect to the control group (KK-Ay mice [2]; 1 mg/kg): 27%
- Mesenteric fat weight, percent reduction (mean value) with respect to the control group (KK-Ay mice [2]; 1 mg/kg): 20%
- plasma FGF21 level versus control group (FGF21): significantly (p<0.001) higher than that in the control group
- plasma triglyceride level versus control group (Zucker fatty rats [3]): significantly (p<0.05) lower than that in the control group
- adverse events during the period of administration (KK-Ay mice [4]): adverse events were not particularly observed
- epididymal fat weight versus control group (Zucker fatty rats [5]): considerably and statistically significantly lower than that in the control group

Compound: CC(C)OC(=O)C(C)(C)Oc1ccc(C(=O)c2ccc(Cl)cc2)cc1 [Fenofibrate, fenofibrate]
- feed intake compared with control group (Zucker fatty rats [1]; fenofibrate 300 mg/kg, Zucker fatty rats, for 10 days after administration): maintained equal to that in the rats of the control group
- reduction of feed intake (Zucker fatty rats [1]; fenofibrate 300 mg/kg, Zucker fatty rats, from 11 days to 14 days after administration): 14%
- Epididymal fat weight, percent reduction (mean value) with respect to the control group (KK-Ay mice [2]; 300 mg/kg): 15%
- Mesenteric fat weight, percent reduction (mean value) with respect to the control group (KK-Ay mice [2]; 300 mg/kg): 13%
- adverse events at high dose (rat model; high dose of fenofibrate, rat model): adverse events (e.g., decrease in hemoglobin, or necrosis of liver cells) occur in the model
- adverse events (rat model; rats, dose of 30 mg/kg or more): various adverse events occur in the rats

Compound: CC[C@@H](Oc1cccc(CN(CCOc2ccccc2)c2nc3cc(F)ccc3o2)c1)C(=O)O [Compound B, (R)2-[3-[ [N-(5-fluorobenzoxazol2-yl)-N2-phenoxyethyl]aminomethyl]phenoxy]butyric acid]
- Mesenteric fat weight, percent reduction (mean value) with respect to the control group (KK-Ay mice [2]; 3 mg/kg): 17%
